Test results: patent US8361998B2, “Compounds and their use as IKACh blockers” (AstraZeneca AB, priority 2010, dated 2013)
Read-outs that look alike come from different tables or passages of the source.

Target: T1, human cardiac ion channel proteins hKir3.1/Kir3.4 (Homo sapiens, UniProt P48544+P48549)
T1 construct: expressed in transfected cells
T1 sequence (P48549 1-501): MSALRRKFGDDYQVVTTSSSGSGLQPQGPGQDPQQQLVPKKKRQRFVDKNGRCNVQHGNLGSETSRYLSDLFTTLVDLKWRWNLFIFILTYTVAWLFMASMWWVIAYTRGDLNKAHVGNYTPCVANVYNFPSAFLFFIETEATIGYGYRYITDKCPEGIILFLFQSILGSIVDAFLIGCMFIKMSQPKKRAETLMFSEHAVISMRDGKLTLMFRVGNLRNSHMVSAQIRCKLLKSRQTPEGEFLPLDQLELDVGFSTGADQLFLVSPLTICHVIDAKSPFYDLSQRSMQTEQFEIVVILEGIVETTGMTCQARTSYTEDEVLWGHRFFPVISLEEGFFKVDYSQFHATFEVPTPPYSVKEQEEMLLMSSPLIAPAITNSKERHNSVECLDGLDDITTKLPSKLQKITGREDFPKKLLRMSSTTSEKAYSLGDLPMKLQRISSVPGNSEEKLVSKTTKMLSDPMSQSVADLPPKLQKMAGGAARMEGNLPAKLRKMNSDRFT
T1 sequence (P48544 1-419): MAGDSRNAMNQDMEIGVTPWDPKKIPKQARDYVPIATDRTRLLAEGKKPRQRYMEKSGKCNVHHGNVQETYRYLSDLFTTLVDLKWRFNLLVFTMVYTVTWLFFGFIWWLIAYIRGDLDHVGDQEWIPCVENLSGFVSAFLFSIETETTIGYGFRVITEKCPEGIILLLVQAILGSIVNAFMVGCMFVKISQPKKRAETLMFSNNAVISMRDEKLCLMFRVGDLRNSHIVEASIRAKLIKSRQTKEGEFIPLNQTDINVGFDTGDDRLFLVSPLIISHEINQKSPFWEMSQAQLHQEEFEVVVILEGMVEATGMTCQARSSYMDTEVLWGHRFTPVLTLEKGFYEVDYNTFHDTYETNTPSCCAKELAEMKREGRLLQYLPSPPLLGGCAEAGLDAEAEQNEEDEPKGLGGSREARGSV
Assay: Atomic Absorption Screening (AAS) Rb efflux assay of hKir3.1/Kir3.4 block, carbachol/high K+ stimulated, 10-pt or 7-pt CR
Type: cell-based
Text: Human KCNJ3 encoding Kir3.1 (Genbank acc. No. NM_002239) was inserted between EcoRI and NotI in the pIRESneo3 vector (Clontech Laboratories, Inc. CA, USA). Human KCNJ5 encoding Kir3.4 (Genbank Acc. No. BC069482) was inserted between EcoR1 and Not1 in the pIRESpuro3 vector (Clontech Laboratories, Inc. CA, USA). A Kozak sequence (GCCACC) was introduced before the start codon ATG of both constructs. Chinese Hamster Ovary K1, CHO-FLP/IN, cells (Invitrogen Corporation, Paisley, UK) were transfected simultaneously using Lipofectamine 2000 reagent (Invitrogen Corporation, Paisley, UK). Geneticin 600 μg/mL (Invitrogen Corporation, Paisley, UK) and puromycin 3 μg/mL (BD Bioscience) were added to the cell culture medium 3 days after transfection. Two weeks after transfection, colonies had appeared and were manually picked and sorted to one cell per well in a 96-well plate. Cells were then tested for Kir3.1 and Kir3.4 expression using membrane potential assay, Western Blot and Immunocytochemistry. […] The cell line was re-sorted by flow cytometry and resulting clones were assayed electrophysiologically using IonWorks (Molecular Devices) and later validated on the Q-Patch (Sophion A/S).
The stable cell line was cultured in DMEM/F12 with Glutamax 1 (Invitrogen Corporation, Paisley, UK), supplemented with foetal bovine serum 10%, puromycin 3 μg/mL, hygromycin 300 μg/mL and geneticin 600 μg/mL (Invitrogen Corporation, Paisley, UK). Care was taken not to seed cells at too low density and cells were passaged at approximately 70-80% confluency. Cells used for patch-clamp experiments were prepared by washing using PBS (—Mg, —Ca^2+), 2 times, detached using Accutase (Sigma). For Q-Patch measurements, storage medium was prepared fresh by adding 1.25 mL of 1M Hepes (GibcoBRL) to 50 mL CHO-SFM II medium (GibcoBRL) and detached cells were diluted to 2 million cells/mL in this medium. Frozen (Cryopreserved) cells were used for Atomic Absorption Screening (AAS) and plated poly-D-lysine 384-well plates (Greiner) at a density of 11,000-13,000 cells/well, the day before assay.
The blocking effects of compounds on the human cardiac ion channel proteins hKir3.1/Kir3.4 were assessed in CHO-K1 cells stably expressing the channel proteins using Atomic Absorption Screening (AAS). Cells were washed and then loaded with 25 μL Rb-loading buffer for three hours at 37° C. After that, the cells were washed again and 25 μL of diluted compound was transferred to the cell plate, incubated for 5 min in RT, and then […] of Carbachol/high K+ (10 μM carbachol and 20 mM KCl final concentration) buffer added to stimulate the cells and open the Kir3.1/Kir3.4 channel. After 10 min stimulation, […] of the supernatant was transferred to a new microplate, 45 μL washing buffer added to the supernatant and the level of Rb in the supernatant was then measured using an Aurora ICR 8000. Compounds were studied at concentrations ranging from 0.003 to 67 μmol/L (dilutions by three, 10-pt CR) or from 0.037 to 27 μmol/L (dilutions by three, 7-pt CR).
Stock solutions of compounds were prepared in DMSO 10 mM and stored at RT. Buffers used for AAS contained (in mM): HEPES 20, NaCl 150, MgCl2 1.0, CaCl2 2.0 and NaH2PO4 0.8 and Glucose 10 (wash 1) or KCl 5 and Glucose 5 (wash 2) or KCl 5 (dilution buffer). The High K^+ channel opener buffer contained (in mM): HEPES 20, NaCl 130, MgCl2 1.0, CaCl2 2.0 and NaH2PO4 0.8 together with KCl 20. Solutions used for Q-Patch (extracellular) in mM: NaCl 145, KCl 4, CaCl2 2.0, MgCl2 1.0, HEPES 10 and glucose 10. The high K^+ extra cellular solution used for Q-Patch in mM: NaCl 96.7, KCl 50.7, CaCl2 2.0, MgCl2 1.0, HEPES 10 and glucose 10 while the intra cellular solution used was (in mM): KCl 120, CaCl2 5.374, MgCl2 1.75, EGTA 10, KOH 3.125, HEPES 10, Na2ATP 4.
Results are given as mean IC50 of >4 replicates (10-pt CR, AAS) or >3 replicates (7-pt CR, AAS). Some of the data in Table 1 are mean values of two or more runs. […]

[1] = printed as IC50 >67 μM in the 10-pt CR assay or IC50 >27 μM in the 7-pt CR assay, assay format per compound not stated, read-out: IC50
[2] = 10-pt CR (0.003 to 67 μmol/L), AAS Rb efflux, CHO-K1 cells expressing hKir3.1/Kir3.4, mean of >4 replicates, read-out: IKACh IC50 10-pt CR, AAS

IC50 [1] | SMILES | IC50 [2]
> 27 µM | CC(C)[C@@H](CCN1CCCC1)N(C)C(=O)c1ccc(Cl)cc1F [4-Chloro-2-fluoro-N-methyl-N-[(1R)-2-methyl-1-(2-pyrrolidin-1-ylethyl)propyl]benzamide] | –
> 27 µM | CC(C)[C@@H](CN1C[C@@H](O)[C@H](O)C1)N(C)C(=O)c1ccc(Cl)cc1 [4-Chloro-N-((S)-1-((3R,4R)-3,4-dihydroxypyrrolidin-1-yl)-3-methylbutan-2-yl)-N-methylbenzamide] | –
> 27 µM | CC(C)[C@@H](CN1C[C@@H](O)[C@H](O)C1)N(C)C(=O)c1ccc(C#N)cc1 [4-Cyano-N-((S)-1-((3R,4R)-3,4-dihydroxypyrrolidin-1-yl)-3-methylbutan-2-yl)-N-methylbenzamide] | –
> 27 µM | CC(C)[C@@H](CN1C[C@H](O)[C@@H](O)C1)N(C)C(=O)c1ccc(C#N)cc1 [4-Cyano-N-((S)-1-((3S,4S)-3,4-dihydroxypyrrolidin-1-yl)-3-methylbutan-2-yl)-N-methylbenzamide] | –
> 27 µM | Cc1cc(C(=O)N(C)C(C)(C)CN2CCCC2)ccc1F [4-Fluoro-N,3-dimethyl-N-(2-methyl-1-(pyrrolidin-1-yl)propan-2-yl)benzamide] | –
> 27 µM | CC(C)[C@@H](CN1CC(O)C1)N(C)C(=O)c1ccc(F)c(CO)c1 [4-Fluoro-N-[(1S)-1-[(3-hydroxyazetidin-1-yl)methyl]-2-methyl-propyl]-3-(hydroxymethyl)-N-methyl-benzamide] | –
> 27 µM | CC(C)[C@@H](CN1CCCC1)N(C)C(=O)c1ccc(F)cc1 [4-Fluoro-N-methyl-N-[(1S)-2-methyl-1-(pyrrolidin-1-ylmethyl)propyl]benzamide] | –
> 27 µM | CC(C)[C@H](CN1CCC1)N(C)C(=O)c1ccc(Br)cc1 [(R)-N-(1-(Azetidin-1-yl)-3-methylbutan-2-yl)-4-bromo-N-methylbenzamide] | –
> 27 µM | CC(C)[C@@H](CN1CC(F)(CO)C1)N(C)C(=O)c1ccc(F)c(F)c1 [(S)-3,4-Difluoro-N-(1-(3-fluoro-3-(hydroxymethyl)azetidin-1-yl)-3-methylbutan-2-yl)-N-methylbenzamide] | –
> 27 µM | CC(C)[C@@H](CN1CC(C)(O)C1)N(C)C(=O)c1ccc(F)c(F)c1 [(S)-3,4-Difluoro-N-(1-(3-hydroxy-3-methylazetidin-1-yl)-3-methylbutan-2-yl)-N-methylbenzamide] | –
> 27 µM | CC(C)[C@@H](CN1CCC(F)(F)C1)N(C)C(=O)c1ccc(Br)cc1 [(S)-4-Bromo-N-(1-(3,3-difluoropyrrolidin-1-yl)-3-methylbutan-2-yl)-N-methylbenzamide] | –
> 27 µM | CC(C)[C@@H](CN1CCC(F)(F)C1)N(C)C(=O)c1ccc(Cl)cc1 [(S)-4-Chloro-N-(1-(3,3-difluoropyrrolidin-1-yl)-3-methylbutan-2-yl)-N-methylbenzamide] | –
> 27 µM | CC(C)[C@@H](CN1CC(F)C1)N(C)C(=O)c1ccc(C#N)cc1F [(S)-4-Cyano-2-fluoro-N-(1-(3-fluoroazetidin-1-yl)-3-methylbutan-2-yl)-N-methylbenzamide] | –
> 27 µM | CC(C)[C@@H](CN1CC(C)(O)C1)N(C)C(=O)c1ccc(F)cc1 [(S)-4-Fluoro-N-(1-(3-hydroxy-3-methylazetidin-1-yl)-3-methylbutan-2-yl)-N-methylbenzamide] | –
> 27 µM | Cc1cc(C(=O)N(C)[C@H](CN2CCC(F)(F)C2)C(C)C)ccc1F [(S)-N-(1-(3,3-Difluoropyrrolidin-1-yl)-3-methylbutan-2-yl)-4-fluoro-N,3-dimethylbenzamide] | –
> 27 µM | COc1cccc(C(=O)N(C)[C@H](CN2CC(F)C2)C(C)C)c1 [(S)-N-(1-(3-Fluoroazetidin-1-yl)-3-methylbutan-2-yl)-3-methoxy-N-methylbenzamide] | –
> 27 µM | CC(C)[C@@H](CN1CC(C)(O)C1)N(C)C(=O)c1ccccc1 [(S)-N-(1-(3-Hydroxy-3-methylazetidin-1-yl)-3-methylbutan-2-yl)-N-methylbenzamide] | –
> 27 µM | Cc1cc(C(=O)N(C)[C@H](CN2CCC(F)(F)CC2)C(C)C)ccc1F [(S)-N-(1-(4,4-Difluoropiperidin-1-yl)-3-methylbutan-2-yl)-4-fluoro-N,3-dimethylbenzamide] | –
> 27 µM | COc1ccc(C(=O)N(C)[C@H](CN2CCC2)C(C)C)cc1F [(S)-N-(1-(Azetidin-1-yl)-3-methylbutan-2-yl)-3-fluoro-4-methoxy-N-methylbenzamide] | –
> 27 µM | CC(C)[C@@H](CN1CCC1)N(C)C(=O)c1ccc(C#N)cc1 [(S)-N-(1-(Azetidin-1-yl)-3-methylbutan-2-yl)-4-cyano-N-methylbenzamide] | –
– | CCC[C@@H](CN1CCC1)N(C)C(=O)c1ccc(Cl)cc1Cl [Example 1.1, (S)—N-(1-(Azetidin-1-yl)pentan-2-yl)-2,4-dichloro-N-methylbenzamide] | 2.3 µM
– | CCC[C@@H](CN1CCC1)N(C)C(=O)c1ccc(Br)cc1 [Example 1.3, (S)-N-(1-(Azetidin-1-yl)pentan-2-yl)-4-bromo-N-methylbenzamide] | 3.1 µM

SMILES | IC50 [1] | IC50 [2]
CC(C)[C@@H](CN1CCCC(F)(F)C1)N(C)C(=O)c1ccc(F)c(F)c1 [(S)-N-(1-(3,3-Difluoropiperidin-1-yl)-3-methylbutan-2-yl)-3,4-difluoro-N-methylbenzamide] | > 27 µM | –
Cc1cc(F)ccc1C(=O)N(C)[C@H](CN1CCCC1)C(C)(C)C [(S)-N-(3,3-Dimethyl-1-(pyrrolidin-1-yl)butan-2-yl)-4-fluoro-N,2-dimethylbenzamide] | > 27 µM | –
